Test results reported in US20250288584A1, “COMBINATIONS COMPRISING POSITIVE ALLOSTERIC MODULATORS OR ORTHOSTERIC AGONISTS OF METABOTROPIC GLUTAMATERGIC RECEPTOR SUBTYPE 2 AND THEIR USE” (JANSSEN PHARMACEUTICA NV, priority 2014, published 2025).
Entries after “also recorded” stand apart in the source; their conditions may differ. Read-outs that look alike come from different tables or passages of the source.

Columns and labels:
[1] = tested on: 6 Hz (44 mA) psychomotor seizures; test: 6 Hz psychomotor seizure test, 44 mA (alone, combination with LEV, isobolographic study); type: in vivo, mice
How it was run: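 Mice dosed s.c. or p.o. at 0.01 mL/g, alone or with LEV at fixed dose ratios proportional to ED50 values. Focal seizures induced by corneal stimulation (6 Hz, 0.2 msec pulse, 3 sec, 44 mA); animals without stun, forelimb clonus, vibrissae twitch or Straub-tail were counted as protected. ED50 values derived, with combinations analysed isobolographically.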

[2] = target: T1, human mGlu2 receptor (Homo sapiens, UniProt Q14416); test: [35S]GTPγS binding assay, mGluR2 PAM; type: biochemical; details: for Emax: maximal % effect relative to control glutamate response, EC20 glutamate, read-out: GTPγS-hmGluR2 PAM Emax
T1 construct: expressed in transfected cells; host or cells: CHO cells

[3] = tested on: corneal kindled seizures; test: Mouse corneal kindling model; type: in vivo, mice; details: for Mean Seizure Score: Racine 0 to 5
Method: After the mice reached a stable kindled state, the test compound or vehicle was administered and, at the previously determined TPE, each animal was given the electrical stimulus indicated above. […] One dose of LEV and two doses of Co.

[4] = tested on: MES seizures; details: in vivo; cited from earlier work

T1 sequence (Q14416 19-872): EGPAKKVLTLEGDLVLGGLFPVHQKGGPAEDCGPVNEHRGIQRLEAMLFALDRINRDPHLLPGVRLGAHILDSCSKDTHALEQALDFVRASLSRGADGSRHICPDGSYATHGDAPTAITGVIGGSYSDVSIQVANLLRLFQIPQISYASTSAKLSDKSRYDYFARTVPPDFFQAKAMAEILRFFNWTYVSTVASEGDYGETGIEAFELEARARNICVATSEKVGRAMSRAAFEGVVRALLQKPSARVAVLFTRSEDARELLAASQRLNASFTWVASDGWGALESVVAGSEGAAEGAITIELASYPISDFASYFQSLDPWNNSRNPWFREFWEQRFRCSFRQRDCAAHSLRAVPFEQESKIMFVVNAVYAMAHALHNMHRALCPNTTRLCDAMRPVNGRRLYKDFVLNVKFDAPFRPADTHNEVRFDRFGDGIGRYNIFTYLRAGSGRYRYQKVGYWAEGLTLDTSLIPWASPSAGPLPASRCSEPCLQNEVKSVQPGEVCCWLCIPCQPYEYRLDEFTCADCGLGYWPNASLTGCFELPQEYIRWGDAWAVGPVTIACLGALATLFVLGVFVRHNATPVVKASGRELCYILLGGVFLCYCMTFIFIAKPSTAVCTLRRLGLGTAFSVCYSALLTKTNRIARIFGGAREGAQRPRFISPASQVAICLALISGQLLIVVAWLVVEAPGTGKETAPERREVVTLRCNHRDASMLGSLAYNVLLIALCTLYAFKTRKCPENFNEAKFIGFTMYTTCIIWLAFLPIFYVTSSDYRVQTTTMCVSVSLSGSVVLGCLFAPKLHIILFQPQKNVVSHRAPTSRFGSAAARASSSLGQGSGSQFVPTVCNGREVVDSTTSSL

In the case of `CCCCn1ccc(N2CCC(c3ccc(F)cc3F)CC2)c(Cl)c1=O` [Co. No. 25-a], the “activity when administered alone” value ([1]; 10 mg/kg s.c.) is reported as “did not protect; also recorded: Co. No. 25-a (s.c.) 10 mg/kg tested in combination with LEV (i.p.)-Co. No. 25-a 10 mg/kg, not active when administered alone”, the responders at 5 mg/kg ([1]; Mus musculus, sc, 0.25 h, 5 mg/kg s.c., 0.25 h, read-out: # protected/# tested) is reported as 0% and the responders at 10 mg/kg ([1]; Mus musculus, sc, 0.25 h, 10 mg/kg s.c., 0.25 h, read-out: # protected/# tested (converted)) is reported as 0%. The responders at 20 mg/kg ([1]; Mus musculus, sc, 0.25 h, 20 mg/kg s.c., 0.25 h, read-out: # protected/# tested (converted)) was 25%, the responders at 30 mg/kg ([1]; Mus musculus, sc, 0.25 h, 30 mg/kg s.c., 0.25 h, read-out: # protected/# tested (converted)) was 37.5% and the responders at 40 mg/kg ([1]; Mus musculus, sc, 0.25 h, 40 mg/kg s.c., 0.25 h, read-out: # protected/# tested (converted)) was 87.5%. For the same molecule, the ED50 ([1]; Mus musculus, sc, 0.25 h, s.c., 0.25 hr TPE, read-out: ED50 (95% CI) 44 mA) was 29.1 mg/kg, the ED50 ([1]; Mus musculus, sc, 1 h, s.c., 1 hr TPE, read-out: ED50 (95% CI) 44 mA) was 25.9 mg/kg and the “ED50 (95% CI) 44 mA” value ([1]; s.c., 0.25 hr TPE) was “ED50 (95% CI): 29.1 mg/kg (21.6 to 39.6)”. For the same molecule, the “ED50 (95% CI) 44 mA” value ([1]; s.c., 1 hr TPE) was 1 hr TPE: 25.9 mg/kg, the EC50 ([2]; in presence of EC20 glutamate, read-out: GTPγS-hmGluR2 PAM pEC50 (converted)) was 85.1 nM and the Emax [2] was 261%.

For `CC[C@@H](C(N)=O)N1CCCC1=O` [LEV, (S)-2-(2-oxopyrrolidin-1-yl) butanamide, reference compound], the “# protected/# tested” value ([3]; LEV 3 mg/kg) was 5/13, the “% Protected” value ([3]; LEV 3 mg/kg) was 38% and the “Mean Seizure Score” value ([3]; LEV 3 mg/kg) was 3.3. The “# protected/# tested” value ([1]; LEV (low-dose) control group 25 mg/kg) was 1/8, the “# protected/# tested” value ([1]; LEV alone 10 mg/kg i.p., 1 h) was “⅙” and the responders at 200 mg/kg ([1]; Mus musculus, 6 Hz (44 mA), LEV alone 200 mg/kg, read-out: # protected/# tested (converted)) was 25%. It also gave a responders at 400 mg/kg ([1]; Mus musculus, 6 Hz (44 mA), LEV alone 400 mg/kg, read-out: # protected/# tested (converted)) of 44.4%, a responders at 800 mg/kg ([1]; Mus musculus, 6 Hz (44 mA), LEV alone 800 mg/kg, read-out: # protected/# tested (converted)) of 83.3% and an ED50 ([1]; Mus musculus, ip, 1 h, 6 Hz (44 mA), LEV alone, i.p., 1 h TPE, read-out: LEV ED50 (95% CI)) of 345 mg/kg. It also gave a responders at 10 mg/kg ([1]; Mus musculus, ip, 1 h, LEV alone 10 mg/kg i.p., 1 h, read-out: # protected/# tested (converted)) of 16.7%, an ED50 ([1]; Mus musculus, ip, 1 h, i.p., 1 h TPE, read-out: ED50 (95% CI) 44 mA, LEV alone) of about 345 mg/kg and a responders at 200 mg/kg ([1]; Mus musculus, ip, LEV alone 200 mg/kg i.p., read-out: # protected/# tested (converted)) of 25%. For the same molecule, the responders at 350 mg/kg ([1]; Mus musculus, ip, LEV alone 350 mg/kg i.p., read-out: # protected/# tested (converted)) was 37.5%, the responders at 400 mg/kg ([1]; Mus musculus, ip, LEV alone 400 mg/kg i.p., read-out: # protected/# tested (converted)) was 44.4% and the responders at 800 mg/kg ([1]; Mus musculus, ip, LEV alone 800 mg/kg i.p., read-out: # protected/# tested (converted)) was 83.3%. The “Maximum Effect (% Protection)” value ([1]; compound alone) was 75% and the “activity in maximal electroshock (MES) seizure test” value [4] was “no activity”.

In the case of `C[C@H](Oc1ccc(F)cc1F)c1ccn2c(CC3CC3)nnc2c1C(F)(F)F` [Co. No. 6-b, 3-(Cyclopropylmethyl)-7-[(1S)-1-(2,4-difluorophenoxy)ethyl]-8-(trifluoromethyl)[1,2,4]triazolo[4,3-a]pyridine], the “activity when administered alone” value ([1]; 10 mg/kg p.o.) is reported as “did not protect; also recorded: Co. No. 6-b 10 mg/kg, not active when administered alone”, the responders at 10 mg/kg ([1]; Mus musculus, po, 0.5 h, 10 mg/kg p.o., 0.5 h, read-out: # protected/# tested (converted)) is reported as 0% and the responders at 15 mg/kg ([1]; Mus musculus, po, 0.5 h, 15 mg/kg p.o., 0.5 h, read-out: # protected/# tested (converted)) is reported as 50%. It also gave a responders at 20 mg/kg ([1]; Mus musculus, po, 0.5 h, 20 mg/kg p.o., 0.5 h, read-out: # protected/# tested (converted)) of 75%, a responders at 40 mg/kg ([1]; Mus musculus, po, 0.5 h, 40 mg/kg p.o., 0.5 h, read-out: # protected/# tested (converted)) of 100% and an ED50 ([1]; Mus musculus, po, 0.5 h, p.o., 0.5 h TPE, read-out: ED50 (95% CI) 44 mA) of 16.1 mg/kg. For the same molecule, the “ED50 (95% CI) 44 mA” value ([1]; p.o., 0.5 h TPE) was 16.1 (13.0-20.1) mg/kg and the Emax [2] was 256%.

For `Fc1ccc(N2CCN(Cc3ccn4c(CC5CC5)nnc4c3C(F)(F)F)CC2)c(F)c1` [Co. No. 1], the “Seizure score (dose) Corneal kindling / Mean Seizure Score” value ([3]; 20 mg/kg s.c., Racine score 0-5) was 3.7, the “# protected/# tested” value ([3]; Co. No. 1 20 mg/kg) was 5/16 and the “% Protected” value ([3]; Co. No. 1 20 mg/kg) was 31%. The “# protected/# tested” value ([3]; Co. No. 1 30 mg/kg) was 3/12, the “% Protected” value ([3]; Co. No. 1 30 mg/kg) was 25% and the “Mean Seizure Score” value ([3]; Co. No. 1 30 mg/kg) was 4.0. For the same molecule, the responders at 2.5 mg/kg ([1]; Mus musculus, sc, 0.5 h, 2.5 mg/kg s.c., 0.5 h, read-out: # protected/# tested) was 0%, the responders at 10 mg/kg ([1]; Mus musculus, sc, 0.5 h, 10 mg/kg s.c., 0.5 h, read-out: # protected/# tested (converted)) was 50% and the responders at 15 mg/kg ([1]; Mus musculus, sc, 0.5 h, 15 mg/kg s.c., 0.5 h, read-out: # protected/# tested (converted)) was 87.5%. The responders at 20 mg/kg ([1]; Mus musculus, sc, 0.5 h, 20 mg/kg s.c., 0.5 h, read-out: # protected/# tested (converted)) was 100%, the ED50 ([1]; Mus musculus, sc, at TPE, compound alone, read-out: ED50 (95% CI) 44 mA) was 10.2 mg/kg and the “ED50 (95% CI) 44 mA” value ([1]; s.c., at TPE, compound alone) was 10.2 (3.1-12.4) mg/kg.
